# Laboratory results published in patent US6890885B2, “Herbicidal composition” (priority 2000, dated 2005).
# Where “and” joins values, the source holds several entries; their conditions need not be identical. Equal values may be shown once.
# Legend:
# Type in all cases: in vivo
# [1] = system: Monocotyledonous and dicotyledonous test plants; assay: Pre-emergence test: herbicidal action (% action) of single active ingredients and mixtures, with expected action We according to Colby; details: for herbicidal action (% action): evaluated after 36 days
# Description: (§1) The herbicidal action to be expected We for a given combination of two herbicides can be calculated as follows (see COLBY, S. R., “Calculating synergistic and antagonistic response of herbicide combinations”, Weeds 15, pages 20-22,1967):
# (§2) When the action actually observed is greater than the value to be expected We, there is a synergistic effect.
# Experiment Description—Pre-emergence Test
# Monocotyledonous and dicotyledonous test plants are sown in standard soil in plastics pots. Directly after sowing, the test substances are applied in aqueous suspension by spraying (500 liters of water/ha). The rates of application depend on the optimum doses ascertained under field conditions and greenhouse conditions. The test plants are then grown on in the greenhouse under optimum conditions. The tests are evaluated after 36 days (% action, 100%=plant has died, 0%=no phytotoxic action).
# In the following Tables, evaluation is carried out after 14 days:
# In the following Tables, evaluation is carried out after 31 days: […]
# test plants = assay: Post-emergence test: herbicidal action (% action) of the herbicide on its own and as a mixture, with expected action We according to Colby
# Description: A synergistic effect exists whenever the action of the active ingredient combination of compounds of formula 1 and 2.1 to 2.51 is greater than the sum of the actions of the active ingredients applied separately.
# as §1
# • X=percentage herbicidal action on treatment with the compound of formula I at a rate of application of p kg per hectare, compared with the untreated control (=0%). • Y=percentage herbicidal action on treatment with a compound of formula 2.1 to 2.51 at a rate of application of q kg per hectare, compared with the untreated control. • We=expected herbicidal action (percentage herbicidal action compared with the untreated control) following treatment with the compounds of formulae 1 and 2.1 to 2.51 at a rate of application of p+q kg of active ingredient per hectare.
# as §2
# Experiment Description—Post-emergence Test
# The test plants are grown to the 2- to 3-leaf stage in plastics pots under greenhouse conditions. A standard soil is used as cultivation substrate. At the 2- to 3-leaf stage, the herbicide is applied to the test plants on its own and as a mixture. The application is carried out using an aqueous suspension of the test substances in 500 liters of water/ha. The rates of application depend on the optimum doses ascertained under field conditions and greenhouse conditions. The tests are evaluated after 33 days (% action, 100%=plant has died, 0%=no phytotoxic action).
# Mixture A contains as active ingredients 915 g/liter of the compound of formula 2.2a and 45 g/liter of the compound of formula 3.1.
# In the following Tables, evaluation is carried out after 21 days: […]
# [2] = system: crop plants, e.g. maize and cereals; assay: Safening action: phytotoxic action of the herbicides on crop plants with and without safener; details: 50 g/ha herbicide alone, applied at 4-leaf stage, 4 weeks after application
# Experimental: Biological Example: Safening Action
# The test plants are grown in plastics pots under greenhouse conditions to the 4-leaf stage. At that stage, the herbicides alone, and the mixtures of the herbicides with the test compounds that are to be tested as safeners, are applied to the test plants. The application is in the form of an aqueous suspension of the test compounds prepared from a 25% wettable powder (Example F3, b)) with 500 liters of water/ha. 4 weeks after application, the phytotoxic action of the herbicides on the crop plants, e.g. maize and cereals, is evaluated using a percentage scale. 100% denotes that the test plant has died, 0% denotes no phytotoxic action.
# The same results are obtained when the mixtures are formulated in accordance with Examples F1, F2 and F4 to F8.
structure (smiles),measurement,setting,value
"Cc1nc(C(F)(F)F)ccc1C(=O)C1=C(O)C2CCC(C2)C1=O (centres unmarked) [Compound 1.001, 4-hydroxy-3-(2-methyl-6-trifluoromethyl-pyridine-3-carbonyl)-bicyclo[3.2.1]oct-3-en-2-one]",herbicidal action,"[1]; Amaranthus, 6 g/ha, after 23 days",10%
same,herbicidal action,"[1]; Chenopodium, 6 g/ha, after 23 days (Table B37)",50%
same,herbicidal action,"[1]; Chenopodium, 6 g/ha, after 23 days (Table B38)",50%
same,herbicidal action,"[1]; Chenopodium, 12.5 g/ha, after 14 days (Table B19)",80%
same,herbicidal action,"[1]; Chenopodium, 12.5 g/ha, after 14 days (Table B20)",80%
same,herbicidal action,"[1]; Chenopodium, 25 g/ha, after 14 days",80%
same,herbicidal action (% action),"[1]; Chenopodium, Compd. 1.001 6.25 g/ha",0%
same,herbicidal action (% action),"[1]; Chenopodium, Compd. 1.001 12.5 g/ha",0%
same,herbicidal action (% action),"[1]; Chenopodium, Compd. 1.001 25 g/ha",0%
same,herbicidal action,"[1]; Cyperus, 12.5 g/ha, after 14 days (Table B19)",0%
same,herbicidal action,"[1]; Cyperus, 12.5 g/ha, after 14 days (Table B20)",0%
same,herbicidal action,"[1]; Cyperus, 25 g/ha, after 14 days (Table B18)",0%
same,herbicidal action,"[1]; Cyperus, 25 g/ha, after 14 days (Table B22)",10%
same,herbicidal action,"[1]; Ipomoea, 25 g/ha, after 31 days (Table B25)",70%
same,herbicidal action,"[1]; Ipomoea, 25 g/ha, after 31 days (Table B26)",70%
same,herbicidal action,"[1]; Ipomoea, 25 g/ha, after 31 days (Table B27)",70%
same,herbicidal action (% action),"[1]; Ipomoea, Compd. 1.001 6.25 g/ha",0%
same,herbicidal action (% action),"[1]; Ipomoea, Compd. 1.001 12.5 g/ha",0%
same,herbicidal action (% action),"[1]; Ipomoea, Compd. 1.001 25 g/ha",30%
same,herbicidal action,"[1]; Polygonum, 25 g/ha, after 31 days (Table B23)",0%
same,herbicidal action,"[1]; Polygonum, 25 g/ha, after 31 days (Table B24)",0%
same,herbicidal action,"[1]; Polygonum, 50 g/ha, after 31 days",0%
same,herbicidal action (% action),"[1]; Sida, Compd. 1.001 6.25 g/ha",0%
same,herbicidal action (% action),"[1]; Sida, Compd. 1.001 12.5 g/ha",0%
same,herbicidal action (% action),"[1]; Sida, Compd. 1.001 25 g/ha",0%
same,herbicidal action,"[1]; Solanum, 12.5 g/ha, after 14 days (Table B19)",75%
same,herbicidal action,"[1]; Solanum, 12.5 g/ha, after 14 days (Table B20)",75%
same,herbicidal action,"[1]; Solanum, 12.5 g/ha, after 14 days (Table B21)",75%
same,herbicidal action,"[1]; Solanum, 25 g/ha, after 14 days",80%
same,herbicidal action (% action),"[1]; Sorghum, Compd. 1.001 6.25 g/ha",0%
same,herbicidal action (% action),"[1]; Sorghum, Compd. 1.001 12.5 g/ha",0%
same,herbicidal action (% action),"[1]; Sorghum, Compd. 1.001 25 g/ha",30%
same,herbicidal action,"[1]; Xanthium, 25 g/ha, after 31 days (Table B25)",80%
same,herbicidal action,"[1]; Xanthium, 25 g/ha, after 31 days (Table B26)",80%
same,herbicidal action,"[1]; Xanthium, 25 g/ha, after 31 days (Table B27)",80%
same,herbicidal action,"test plants; Ipomoea, 6.25 g/ha, post-emergence, after 33 days",0%
same,herbicidal action,"test plants; Ipomoea, 6.25 g/ha, post-emergence, after 33 days (Table B10)",0%
same,herbicidal action,"test plants; Ipomoea, 12.5 g/ha, post-emergence, after 21 days",30%
same,herbicidal action,"test plants; Ipomoea, 12.5 g/ha, post-emergence, after 33 days",0%
same,herbicidal action,"test plants; Ipomoea, 12.5 g/ha, post-emergence, after 33 days (Table B8)",0%
same,herbicidal action,"test plants; Ipomoea, 25 g/ha, post-emergence, after 21 days (Table B29)",30%
same,herbicidal action,"test plants; Ipomoea, 25 g/ha, post-emergence, after 21 days (Table B30)",30%
same,herbicidal action,"test plants; Ipomoea, 25 g/ha, post-emergence, after 21 days (Table B31)",30%
same,herbicidal action,"test plants; Ipomoea, 25 g/ha, post-emergence, after 21 days (Table B33)",30%
same,herbicidal action,"test plants; Polygonum, 6.25 g/ha, post-emergence, after 33 days",0%
same,herbicidal action,"test plants; Polygonum, 6.25 g/ha, post-emergence, after 33 days (Table B10)",0%
same,herbicidal action,"test plants; Polygonum, 12.5 g/ha, post-emergence, after 21 days (Table B32)",30%
same,herbicidal action,"test plants; Polygonum, 12.5 g/ha, post-emergence, after 21 days (Table B34)",30%
same,herbicidal action,"test plants; Polygonum, 12.5 g/ha, post-emergence, after 21 days (Table B35)",30%
same,herbicidal action,"test plants; Polygonum, 12.5 g/ha, post-emergence, after 33 days",0%
same,herbicidal action,"test plants; Polygonum, 12.5 g/ha, post-emergence, after 33 days (Table B8)",0%
same,herbicidal action,"test plants; Polygonum, 25 g/ha, post-emergence, after 21 days (Table B29)",75%
same,herbicidal action,"test plants; Polygonum, 25 g/ha, post-emergence, after 21 days (Table B31)",75%
same,herbicidal action,"test plants; Polygonum, 25 g/ha, post-emergence, after 21 days (Table B36)",75%
same,herbicidal action,"test plants; Xanthium, 6.25 g/ha, post-emergence, after 33 days",70%
same,herbicidal action,"test plants; Xanthium, 6.25 g/ha, post-emergence, after 33 days (Table B10)",70%
same,herbicidal action,"test plants; Xanthium, 12.5 g/ha, post-emergence, after 33 days",80%
same,herbicidal action,"test plants; Xanthium, 12.5 g/ha, post-emergence, after 33 days (Table B8)",80%
same,herbicidal action,"test plants; Xanthium, 25 g/ha, post-emergence, after 21 days",90%
same,phytotoxic action,[2]; Abutilon,100%
same,phytotoxic action,[2]; Maize,50%
same,phytotoxic action,[2]; Setaria,100%
"CCc1cccc(C)c1N(COCCl)C(C)COC (centres unmarked) [Compound 2.2.b, reference compound]",herbicidal action,"[1]; Chenopodium, 300 g/ha, after 14 days",0%
same,herbicidal action,"[1]; Cyperus, 300 g/ha, after 14 days",0%
same,herbicidal action,"[1]; Solanum, 300 g/ha, after 14 days",40%
"CSc1nnc(C(C)(C)C)c(=O)n1N [Compound 2.14, metribuzin, reference compound]",herbicidal action,"[1]; Ipomoea, 125 g/ha, after 31 days",0%
same,herbicidal action,"[1]; Polygonum, 125 g/ha, after 14 days (Table B13)",30%
same,herbicidal action,"[1]; Polygonum, 250 g/ha, after 14 days",50%
same,herbicidal action,"[1]; Xanthium, 125 g/ha, after 31 days",20%
"O=C(O)CNCP(=O)(O)O [Compound 2.16, glyphosate, reference compound]",herbicidal action,test plants; in vivo,20% and 10%
"CCC(CC)Nc1c([N+](=O)[O-])cc(C)c(C)c1[N+](=O)[O-] [Compound 2.18, pendimethalin, reference compound]",herbicidal action,"[1]; Polygonum, 500 g/ha, after 14 days",80%
"COc1c(Cl)ccc(Cl)c1C(=O)O [Compound 2.19, dicamba, reference compound]",herbicidal action,test plants; in vivo,60%
"COC(=O)CSc1cc(/N=c2\sc(=O)n3n2CCCC3)c(F)cc1Cl [Compound 2.25, fluthiacet-methyl, reference compound]",herbicidal action,"test plants; Ipomoea, 2 g/ha, post-emergence, after 21 days",0%
same,herbicidal action,"test plants; Polygonum, 2 g/ha, post-emergence, after 21 days",0%
"CC(C)N(C(=O)COc1nnc(C(F)(F)F)s1)c1ccc(F)cc1 [Compound 2.30, fluthiamid, reference compound]",herbicidal action,"[1]; Cyperus, 100 g/ha, after 14 days (Table B22)",0%
same,herbicidal action,"[1]; Polygonum, 60 g/ha, after 14 days (Table B15)",30%
"O=C(O)CNCP(=O)(O)O [Compound 2.33, sulfosate, reference compound]",herbicidal action,"test plants; Polygonum, 360 g/ha, post-emergence, after 21 days (Table B32)",0%
